Data reported in patent publication EP0745597A2, “Novel melatonergic indanyl piperazines or homopiperazines” (BRISTOL-MYERS SQUIBB COMPANY, priority 1995, dated 1996).

These compounds were tested against T1, human ML1B receptor (Homo sapiens, UniProt P49286) (assay: Measurement of binding to melatonergic receptors (2-[125I]-iodomelatonin, membranes of transfected NIH 3T3 cells)). Details: 2-[125I]-Iodomelatonin 200 pM, 37 °C for 1 hour, NIH 3T3 cells stably transfected with the human ML1B receptor; read-out: Melatonin Binding.
T1 construct: host or cells: NIH 3T3 cells, stably transfected; membrane homogenates
T1 sequence (P49286 1-362): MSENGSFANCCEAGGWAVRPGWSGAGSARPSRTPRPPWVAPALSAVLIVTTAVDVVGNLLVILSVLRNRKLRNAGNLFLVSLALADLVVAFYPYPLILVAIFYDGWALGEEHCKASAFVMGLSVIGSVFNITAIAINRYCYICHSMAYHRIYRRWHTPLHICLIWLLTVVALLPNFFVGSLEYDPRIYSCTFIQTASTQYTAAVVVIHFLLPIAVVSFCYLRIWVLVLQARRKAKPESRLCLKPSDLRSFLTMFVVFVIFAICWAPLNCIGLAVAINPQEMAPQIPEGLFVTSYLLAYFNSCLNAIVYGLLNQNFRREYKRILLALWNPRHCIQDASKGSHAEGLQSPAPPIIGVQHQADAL
Procedure: The melatonergic binding affinities of various compounds of Formula I were determined by the method of Reppert, S. M., Weaver, D. R., and Ebisawa, R. (Neuron, Volume 13, 1177-1185, 1994). The assays were incubated at 37 °C for 1 hour, and the reaction was terminated by filtration. The filters were washed with wash buffer. […] The reagents, membrane and other techniques used in the melatonergic binding assays are more fully described below: • 1. Reagents: • (a) 50 mM Tris buffer containing 12.5 mM MgCl2, and 2mM EDTA, pH 7.4 at 37 °C. • (b) Wash buffer: 20 mM Tris base containing 2 mM MgCl2. pH 7.4 at room temperature. • (c) Melatonin (10^-5 M final concentration). • (d) 2-[^125I]-Iodomelatonin, 200 pM final concentration Source: NEN • 2. Membrane preparation: NIH 3T3 cells stably transfected with the human ML1B receptor were obtained from S.M. Reppert and maintained. Cells were pelleted when confluent. The supernatant was discarded and the pellets frozen. For preparing membrane homogenates, the pellets are thawed on ice and resuspended in TME buffer, Tris base, MgCl2, EDTA (pH 7.4 at 37 °C ), supplemented with aprotinin, leupeptin, and […]. The cells were then homogenized and centrifuged. The resulting pellet was resuspended with a Dounce homogenizer in TME and frozen. At assay, a small aliquot was thawed on ice and resuspended in TME buffer. […] These compounds are considered active.

Structure (SMILES)	IC50
COc1ccc2c(c1)C(N1CCN(C(=O)c3cccs3)CC1)CC2 (stereo not drawn) [4-(6-Methoxy-indan-1-yl)-1-[(2-thienyl)carbonyl]piperazine]	< 10 nM
CCOC(=O)N1CCN(C2CCc3ccc(OC)cc32)CC1 (stereo not drawn) [1-(Ethoxycarbonyl)-4-(6-methoxy-indan-1-yl)piperazine]	100 to 250 nM
COc1ccc2c(c1)C(N1CCN(C(=O)c3ccccc3Cl)CC1)CC2 (single isomer, unassigned; (-)) [(-)-1-(2-Chlorobenzoyl)-4-(6-methoxy-indan-1-yl)piperazine]	100 to 250 nM
C=CC(=O)N1CCN(C2CCc3ccc(OC)cc32)CC1 (stereo not drawn) [1-(Ethenylcarbonyl)-4-(6-methoxy-indan-1-yl)piperazine]	10 to 100 nM
CCC(C)(C)C(=O)N1CCN(C2CCc3ccc(OC)cc32)CC1 (single isomer, unassigned; (-)) [(-)-1-(2,2-Dimethyl-butanoyl)-4-(6-methoxy-indan-1-yl)piperazine]	10 to 100 nM
COc1ccc2c(c1)C(N1CCN(C(=O)C3CCCC3)CC1)CC2 (stereo not drawn) [1-(Cyclopentylcarbonyl)-4-(6-methoxy-indan-1-yl)piperazine]	10 to 100 nM
COc1ccc2c(c1)C(N1CCN(C(=O)C=C(C)C)CC1)CC2 (single isomer, unassigned; (-)) [(-)-1-[(2,2-Dimethyl-ethenyl)carbonyl]-4-(6-methoxy-indan-1-yl)piperazine]	10 to 100 nM
O=C(C1CC1)N1CCN(C2CCc3ccccc32)CC1 (stereo not drawn) [1-(Cyclopropylcarbonyl)-4-(indan-1-yl)piperazine]	100 to 250 nM
CCNC(=O)N1CCN(C2CCCc3ccc(OC)cc32)CC1 (stereo not drawn) [N-Ethyl-4-(7-methoxy-tetralin-1-yl)piperazine-1-carboxamide]	100 to 250 nM
COc1ccc2c(c1)C(N1CCN(C(=O)C(C)(C)C)CC1)CC2 (stereo not drawn) [1-(2,2-dimethyl-propanoyl)-4-(6-methoxy-indan-1-yl)piperazine]	10 to 100 nM
COc1ccc2c(c1)C(N1CCN(C(=O)N(C)C)CC1)CC2 (stereo not drawn) [N,N-Dimethyl-4-(6-methoxy-indan-1-yl)piperazine-1-carboxamide]	10 to 100 nM
COc1ccc2c(c1)C(N1CCN(C(=O)c3ccc(Cl)s3)CC1)CC2 (single isomer, unassigned; (-)) [(-)-1-[(5-Chloro-thien-2-yl)carbonyl]-4-(6-methoxy-indan-1-yl)piperazine]	100 to 250 nM
COc1ccc2c(c1)C(N1CCCN(C(=O)C(C)C)CC1)CC2 (stereo not drawn) [4-(6-Methoxy-indan-1-yl)-1-(2-methyl-propanoyl)homopiperazine]	10 to 100 nM
CCc1ccc2c(c1)C(N1CCN(C(=O)C(C)C)CC1)CC2 (stereo not drawn) [4-(6-Ethyl-indan-1-yl)-1-(2-methylpropanoyl)piperazine]	100 to 250 nM
CCC(=O)N1CCN(C2CCc3ccc(OC)cc32)CC1 (stereo not drawn) [4-(6-Methoxy-indan-1-yl)-1-propanoylpiperazine]	10 to 100 nM
CNC(=O)N1CCN(C2CCc3ccc(OC)cc32)CC1 (stereo not drawn) [N-Methyl-4-(6-methoxy-indan-1-yl)piperazine-1-carboxamide]	< 10 nM
CCNC(=O)N1CCN(C2CCc3ccc(OCC)cc32)CC1 (stereo not drawn) [N-Ethyl-4-(6-ethoxy-indan-1-yl)piperazine-1-carboxamide]	10 to 100 nM
COc1ccc2c(c1)C(N1CCN(C(C)=O)CC1)CCC2 (stereo not drawn) [1-Acetyl-4-(7-methoxy-tetralin-1-yl)piperazine]	10 to 100 nM
CCNC(=O)N1CCN(C2CCc3ccc(OC)cc32)CC1 (stereo not drawn) [N-Ethyl-4-(6-methoxy-indan-1-yl)piperazine-1-carboxamide]	10 to 100 nM
COc1ccc2c(c1)C(N1CCN(C(C)=O)CC1)CC2 (stereo not drawn) [1-Acetyl-4-(6-methoxy-indan-1-yl)piperazine]	100 to 250 nM
COc1cc2c(cc1F)CCC2N1CCN(C(=O)C(C)C)CC1 (stereo not drawn) [4-(5-Fluoro-6-methoxy-indan-1-yl)-1-(2-methylpropanoyl)piperazine]	10 to 100 nM
COc1cc2c(cc1F)CCC2N1CCN(C(=O)C2CC2)CC1 (stereo not drawn) [1-(Cyclopropylcarbonyl)-4-(5-fluoro-6-methoxy-indan-1-yl)piperazine]	10 to 100 nM
CCC(C)C(=O)N1CCN(C2CCc3ccc(OC)cc32)CC1 (stereo not drawn) [4-(6-Methoxy-indan-1-yl)-1-(2-methyl-butanoyl)piperazine]	10 to 100 nM

Structure (SMILES)	IC50
COc1ccc2c(c1)C(N1CCN(C(=O)CCl)CC1)CC2 (single isomer, unassigned; (-)) [(-)-1-(Chloroacetyl)-4-(6-methoxy-indan-1-yl)piperazine]	10 to 100 nM
COc1ccc2c(c1)C(N1CCN(C(=O)NC(C)C)CC1)CC2 (stereo not drawn) [N-(1-Methylethyl)-4-(6-methoxy-indan-1-yl)piperazine-1-carboxamide]	10 to 100 nM
COc1ccc2c(c1)C(N1CCN(C(=O)c3cccn3C)CC1)CC2 (single isomer, unassigned; (-)) [(-)-4-(6-Methoxy-indan-1-yl)-1-[(1-methyl-pyrrol-2-yl)carbonyl]piperazine]	< 10 nM
COc1ccc2c(c1)C(N1CCN(C(=O)NC3CC3)CC1)CC2 (stereo not drawn) [N-Cyclopropyl-4-(6-methoxy-indan-1-yl)piperazine-1-carboxamide]	< 10 nM
CCCC(=O)N1CCN(C2CCCc3ccc(OC)cc32)CC1 (stereo not drawn) [1-(1-Butanoyl)-4-(7-methoxy-tetralin-1-yl)piperazine]	10 to 100 nM
COc1ccc2c(c1)C(N1CCN(C(=O)c3csnn3)CC1)CC2 (single isomer, unassigned; (-)) [(-)-4-(6-Methoxy-indan-1-yl)-1-[(1,2,3-thiadiazol-4-yl)carbonyl]-piperazine]	10 to 100 nM
CCC(=O)C(=O)N1CCN(C2CCc3ccc(OC)cc32)CC1 (single isomer, unassigned; (-)) [(-)-4-(6-Methoxy-indan-1-yl)-1-(2-oxo-butanoyl)piperazine]	10 to 100 nM
CNC(=O)N1CCN(C2CCCc3ccc(OC)cc32)CC1 (stereo not drawn) [N-Methyl-4-(7-methoxy-tetralin-1-yl)piperazine-1-carboxamide]	10 to 100 nM
COc1ccc2c(c1)C(N1CCN(C(=O)c3occc3C)CC1)CC2 (single isomer, unassigned; (-)) [(-)-4-(6-Methoxy-indan-1-yl)-1-[(3-methyl-furan-2-yl)carbonyl]piperazine]	< 10 nM
COc1ccc2c(c1)C(N1CCN(C(=O)C3CC3)CC1)CC2 (stereo not drawn) [1-(Cyclopropylcarbonyl)-4-(6-methoxy-indan-1-yl)piperazine]	< 10 nM
CCCCCCCCCOc1ccc2c(c1)C(N1CCN(C(=O)NCC)CC1)CC2 (stereo not drawn) [N-Ethyl-4-(6-nonyloxy-indan-1-yl)piperazine-1-carboxamide]	10 to 100 nM
COc1ccc2c(c1)C(N1CCN(C(=O)CSC)CC1)CC2 (single isomer, unassigned; (-)) [(-)-4-(6-Methoxy-indan-1-yl)-1-(2-methylthioacetyl)piperazine]	< 10 nM
COc1ccc2c(c1)C(N1CCCN(C(=O)C3CC3)CC1)CC2 (stereo not drawn) [1-(Cyclopropylcarbonyl)-4-(6-methoxy-indan-1-yl)homopiperazine]	10 to 100 nM
CCCNC(=O)N1CCN(C2CCc3ccc(OC)cc32)CC1 (stereo not drawn) [N-(n-Propyl)-4-(6-methoxy-indan-1-yl)piperazine-1-carboxamide]	10 to 100 nM
COc1ccc2c(c1)C(N1CCN(C(=O)C3CCC3)CC1)CC2 (stereo not drawn) [1-(Cyclobutylcarbonyl)-4-(6-methoxy-indan-1-yl)piperazine]	< 10 nM
COc1ccc2c(c1)C(N1CCN(C(=O)c3ccco3)CC1)CC2 (stereo not drawn) [1-[(2-Furanyl)carbonyl]-4-(6-methoxy-indan-1-yl)piperazine]	< 10 nM
COc1ccc2c(c1)C(N1CCN(C(=O)c3sccc3Cl)CC1)CC2 (single isomer, unassigned; (-)) [(-)-1-[(3-Chlorothien-2-yl)carbonyl]-4-(6-methoxy-indan-1-yl)-1-piperazine]	< 10 nM
CCc1ccc2c(c1)C(N1CCN(C(=O)C3CC3)CC1)CC2 (stereo not drawn) [1-(Cyclopropylcarbonyl)-4-(6-ethyl-indan-1-yl)piperazine]	100 to 250 nM
COc1ccc2c(c1)C(N1CCN(C(=O)c3ccccc3)CC1)CC2 (single isomer, unassigned; (-)) [(-)-1-(Benzoyl)-4-(6-methoxy-indan-1-yl)piperazine]	100 to 250 nM
COCC(=O)N1CCN(C2CCc3ccc(OC)cc32)CC1 (stereo not drawn) [1-(Methoxyacetyl)-4-(6-methoxy-indan-1-yl)piperazine]	10 to 100 nM
CCCC(=O)N1CCN(C2CCc3ccc(OC)cc32)CC1 (stereo not drawn) [1-Butanoyl-4-(6-methoxy-indan-1-yl)piperazine]	< 10 nM
COc1ccc2c(c1)C(N1CCN(C(=O)c3c[nH]c4ccccc34)CC1)CC2 (single isomer, unassigned; (-)) [(-)-1-[(1H-indol-3-yl)carbonyl]-4-(6-methoxy-indan-1-yl)piperazine]	100 to 250 nM
